Experimental data as given in US11446226B2, “Composition for preventing or improving intrinsic aging comprising paeoniflorin or albiflorin” (Amorepacific Corporation, priority 2017, dated 2022).

Legend:
[1] = system: MMP-1; assay: MMP-1 inhibition effect in fibroblasts, stimulation source TNF-α (MMP-1 ELISA normalized to CCK8 cell viability); type: cell-based; conditions: TNF-α 10 ng/mL; for MMP-1 level with respect to the negative control group treated with TNF-α as 100: 0.1 or 1 ppm; for Normalized MMP-1 level relative to TNF-α control (100%): 48 hours
Experimental: Fibroblasts acquired from ATCC were transferred to a medium containing 10% (v/v) FBS and were cultured at 37° C. for 24 hours under the condition of 5% CO2. After replacing the medium with a serum-free medium, the cells were cultured for at least 6 hours. Then, after treating with 10 ng/mL TNF-α, as an intrinsic inflammatory factor causing intrinsic aging, and then with 0.1 ppm or 1 ppm paeoniflorin (Sigma-Aldrich), the cells were cultured for 48 hours. 48 hours later, the culture was separated partly and MMP-1 ELISA was conducted according to a method commonly employed in the art. A negative control group was not treated with paeoniflorin, and a positive control group was treated with 2 μM ATRA (all-trans retinoic acid) instead of the paeoniflorin. Subsequently, the remaining culture was separated partly and cell viability was measured by CCK8 (cell count kit 8) assay according to a method commonly employed in the art. The result was normalized to the result of the MMP-1 ELISA. Meanwhile, the MMP-1 inhibition effect by albiflorin was investigated in the same manner as the MMP-1 inhibition effect by paeoniflorin, except that the cells were treated with 0.1 ppm or 1 ppm albiflorin (Wako Chemical) instead of the 0.1 ppm or 1 ppm paeoniflorin. The MMP-1 inhibition effect by a combination of paeoniflorin and albiflorin was investigated in the same manner as the MMP-1 inhibition effect by paeoniflorin, except that the cells were treated with a 10:1 mixture of paeoniflorin and albiflorin (P+A) at 0.1+0.01 ppm or 1+0.1 ppm instead of the 0.1 ppm or 1 ppm paeoniflorin.

[2] = system: MMP-1; assay: MMP-1 inhibition effect in fibroblasts, stimulation source UV (UVB; MMP-1 ELISA normalized to CCK8 cell viability); type: cell-based; conditions: 48 hours
Experimental: Fibroblasts acquired from ATCC were transferred to a medium containing 10% (v/v) FBS and were cultured at 37° C. for 24 hours under the condition of 5% CO2. After replacing the medium with a serum-free medium, the cells were cultured for at least 6 hours. Then, after treating with 30 mJ/cm^2 UVB, as an extrinsic stimulating factor causing extrinsic aging, and then with 0.1 ppm or 1 ppm paeoniflorin (Sigma-Aldrich), the cells were cultured for 48 hours. 48 hours later, the culture was separated partly and MMP-1 ELISA was conducted according to a method commonly employed in the art. A negative control group was not treated with paeoniflorin, and a positive control group was treated with 2 μM ATRA (all-trans retinoic acid) instead of the paeoniflorin.
Subsequently, the remaining culture was separated partly and cell viability was measured by CCK8 (cell count kit 8) assay according to a method commonly employed in the art. The result was normalized to the result of the MMP-1 ELISA.
Meanwhile, the MMP-1 inhibition effect by albiflorin was investigated in the same manner as the MMP-1 inhibition effect by paeoniflorin, except that the cells were treated with 0.1 ppm or 1 ppm albiflorin (Wako Chemical) instead of the 0.1 ppm or 1 ppm paeoniflorin.

[3] = 0.1 ppm, with respect to negative control
[4] = 1 ppm, with respect to negative control
[5] = UVB 30 mJ/cm^2, 0.1 ppm, with respect to negative control
[6] = UVB 30 mJ/cm^2, 1 ppm, with respect to negative control

Structure (SMILES) | MMP-1 level with respect to the negative control group treated with TNF-α as 100 [1] | Normalized MMP-1 level relative to TNF-α control (100%) [1, 3] [%] | Normalized MMP-1 level relative to TNF-α control (100%) [1, 4] [%] | Normalized MMP-1 Inhibition (%) [2, 5] [%] | Normalized MMP-1 Inhibition (%) [2, 6] [%] | Normalized MMP-1 level relative to TNF-α control (100%) ([1]; positive control 2 μM ATRA) [%] | Normalized MMP-1 Inhibition (%) ([2]; UVB 30 mJ/cm^2, positive control 2 μM ATRA)
C[C@]12C[C@@H](O)[C@@H]3C[C@@]1(O[C@@H]1O[C@H](CO)[C@@H](O)[C@H](O)[C@H]1O)[C@]3(COC(=O)c1ccccc1)C(=O)O2 [Albiflorin, albiflorin] | about 60% | 63.25 | 59.44 | −5.29 | −10.96 | – | –
C[C@@]12C[C@@]3(O)O[C@@H](O1)[C@]1(COC(=O)c4ccccc4)[C@H]3C[C@@]12O[C@@H]1O[C@H](CO)[C@@H](O)[C@H](O)[C@H]1O [Paeoniflorin, paeoniflorin] | about 60% | 69.34 | 66.49 | −3.27 | −22.03 | – | –
CC1=C(/C=C/C(C)=C/C=C/C(C)=C/C(=O)O)C(C)(C)CCC1 [Positive control, all-trans retinoic acid, reference compound] | – | – | – | – | – | 48.75 | 25.72
